From US7812121B2 (priority 2006, dated 2010)
“Also recorded” adds a separate entry of the source.

Columns and labels:
CD1 mice = assay: Mucosal weight gain in small intestine, 10 days daily s.c. dosing; format: in vivo
From the text: Afterwards, the mice were euthanized and the small intestines were removed, flushed with saline, and processed as described below.
(§1) Specifically, 4 cm sections were harvested: (1) immediately distal to the pylorus (duodenum), (2) starting 2 cm distal of the ligament of Treitz (jejunum), and (3) immediately proximal to the cecum (ileum). The remaining small intestine from ˜6 cm distal of the ligament of Treitz to 4 cm proximal to the cecum was used to prepare mucosal scrapings. From the proximal and distal ends of the remnant, an equal distance was removed until a 15 cm section remained, the remnant was cut longitudinally, rinsed, and the mucosal layer was removed using the short end of a glass microscope slide. The wet weight of the intact intestinal segments and mucosa was measured.

[1] = SEC-SLS solution molecular weight / self-association; format: physicochemical; details: PBS (pH 7.5), 1 mg/ml
Procedure: Solution molecular weight of the peptides was measured by SEC-SLS. Briefly, peptide solutions in PBS (pH 7.5) at 0.4 to 2.0 mg/mL were fractionated over a Superdex peptide column (Amersham Pharmacia). The eluted peaks were monitored by static light scattering at 690 nm and solution molecular weight was determined at UV 280 nm using the Astra software package (Wyatt Inc.).

[2] = CD spectra secondary structure; format: physicochemical; details: 0.2 mg/mL peptide in PBS, 25° C.
Procedure: The secondary structures of tested peptides were determined using 0.2 mg/mL peptide solutions in PBS. Briefly, CD spectra were collected in triplicate at 1 nm intervals at 25° C. in 0.1 cm path length cell. Secondary structures were determined by fitting of the CD spectra using CD spectra software (CD Spectra Deconvolution software 2.1). All tested peptides contained peaks corresponding to the presence of alpha helices.

normal mice [3] = assay: Upper gastrointestinal transit, carmine dye technique; format: in vivo; details: 50 μg/mouse daily s.c. for 10 days, 20-minute test period, vs PBS vehicle
Procedure: To test the effects of A2G-GLP-2 on upper gastrointestinal transit in normal mice, mice were randomly assigned to 2 groups (14 animals per test group). Each group received daily subcutaneous injection (total volume […]) of either A2G-GLP-2 peptide (50 μg/mouse) or the phosphate-buffered saline vehicle for 10 consecutive days.
On the day of study, upper gastrointestinal transit was measured using the carmine dye technique. Mice were fed a test meal of 0.25 ml of a 6% (w/v) solution of carmine cochineal powder mixed into 0.5% (w/v) methylcellulose administered intragastrically by an 18 gauge curved feeding tube. Following oral test meal administration, mice were replaced into their home cages. Twenty minutes after marker meal administration, mice were rapidly euthanized by cervical dislocation and the entire gastrointestinal tract was excised starting from the distal colon and working towards the gastric pylorus. […] The linear distance traversed by the carmine dye front through the small intestine was measured together with the total length of the small bowel. Upper gastrointestinal transit was expressed as the percentage of the entire small intestine traversed by the carmine dye front during the 20-minute test period; % small intestine traveled=[distance traversed by dye front through small intestine (cm)/entire small intestine length (cm)×100].

[4] = Pharmacokinetics in mice (TRF assay of active mimetibody); format: in vivo
From the text: Blood was collected at different time points into citrate buffer containing protease inhibitors to minimize the possibility of ex vivo degradation and plasma was separated by centrifugation.
A time resolved fluorescence (TRF) assay was used to measure active mimetibody. Active mimetibody reflects the intact N-terminus of the peptide still attached to the Fc region of the mimetibody.

mice [5] = assay: Pharmacodynamics, dosing regimens, 11 day study; format: in vivo
From the text: as §1
The duration of the study was 11 days and tissue was processed as described in Example 4.

normal mice [6] = assay: Upper gastrointestinal transit, FITC-dextran method; format: in vivo; details: 30 minute test; for upper gastrointestinal transit: single injection 4 mg/kg 4 days before, 4 mg/kg
Procedure: On the day of study, upper gastrointestinal transit was measured using the FITC-dextran method. This method provides both, a measure of gastrointestinal transit and a readout of the pattern of distribution of the test meal along the gastrointestinal tract. Mice were fed a test meal of […] of FITC-dextran solution (5 mg/ml of 70,000 molecular weight dextran conjugated to fluorescein-isothiocyanate in 0.5% methylcellulose/deionized water) administered intragastrically by an 18 gauge curved feeding tube. Following oral administration of the FITC-dextran test meal, mice were returned to their home cages. It was shown that a 30 min test period was the optimum duration for detecting accelerated transit, while a 45 min test period was optimum for detecting delayed transit. Following the appropriate test period, mice were sacrificed by carbon dioxide exposure. The entire gastrointestinal tract from the lower esophageal sphincter to the terminal colon was removed. The bowel segments were opened along the mesenteric border. The tissue and luminal contents of the stomach, 10 equal segments of small intestine, the cecum, and 3 equal segments of colon were placed in individual Eppendorf tubes containing 1 ml of PBS. The tissue was vigorously mixed on a table-top vortex, and solid materials were pelleted by centrifugation. Aliquots of the cleared supernatant were read in duplicate on a 96-well fluorescence plate reader to quantify the magnitude of the fluorescent signal in each segment of bowel. These values were used to calculate the Geometric Center (GC), which is defined as the weighted average distribution of the fluorescent signal along the gastrointestinal tract: GC=Σ(% of total fluorescent signal per segment×segment number)/100. Higher values represent faster rates of transit on scale of 1 to 15. […] The mimetibody-induced shift in the distribution pattern of FITC-dextran is shown in the upper panel. […] The GC is calculated in the lower panel for statistical comparison.

[7] = SEC-SLS solution molecular weight / self-association; format: physicochemical; details: purified mimetibody
CD-1 mice = assay: Gastrointestinal transit in post-operative inflammatory ileus; format: in vivo; details: 2 mg/kg one hour before surgery, FITC-dextran 48 hr after operation, 45 minutes
Procedure: On the day of study, upper gastrointestinal transit was measured using the FITC-dextran method. This method provides both, a measure of gastrointestinal transit and a readout of the pattern of distribution of the test meal along the gastrointestinal tract. Mice were fed a test meal of […] of FITC-dextran solution (5 mg/ml of 70,000 molecular weight dextran conjugated to fluorescein-isothiocyanate in 0.5% methylcellulose/deionized water) administered intragastrically by an 18 gauge curved feeding tube. Following oral administration of the FITC-dextran test meal, mice were returned to their home cages. It was shown that a 30 min test period was the optimum duration for detecting accelerated transit, while a 45 min test period was optimum for detecting delayed transit. Following the appropriate test period, mice were sacrificed by carbon dioxide exposure. The entire gastrointestinal tract from the lower esophageal sphincter to the terminal colon was removed. […] Aliquots of the cleared supernatant were read in duplicate on a 96-well fluorescence plate reader to quantify the magnitude of the fluorescent signal in each segment of bowel. […] The GC is calculated in the lower panel for statistical comparison. […]
All mice received an oral test meal of FITC-dextran 48 hr after the operation. Gastrointestinal transit was determined 45 minutes after oral feeding. […]

mice [8] = assay: Myeloperoxidase histochemistry of intestinal muscularis in post-operative inflammatory ileus; format: in vivo; details: 2 mg/kg one hour before surgery, tissue 48 hr after operation
Procedure: Myeloperoxidase histochemistry was performed on tissues harvested from the mid-small bowel of the mice 48 hr after the operation.
Briefly, segments of mid-small bowel were collected from the centrifuge tubes described in Example 12. Whole mounts of the muscle layer were prepared by pinning the tissue flat in a Sylgard® lined Petri dish and stretching the tissue to 2 times its length and 1.5 times its width. The mucosa was removed by fine dissection. The muscularis whole mounts were then fixed with 100% ethanol for 1 hr, washed 3 times with PBS, and incubated for 20 min in PBS containing 0.1% hydrogen peroxide and 1 mg/ml Hanker-Yates reagent. Following a second wash with PBS, the whole mounts were mounted on glass slides, cover-slipped, and viewed on an optical microscope. Myeloperoxidase containing leukocytes were counted in 6 to 8 adjacent 200× optical fields of view and the mean cell counts were calculated and recorded.

Molecule: CC[C@H](C)[C@H](NC(=O)[C@H](Cc1ccccc1)NC(=O)[C@H](CC(=O)O)NC(=O)[C@H](CCCNC(=N)N)NC(=O)[C@H](C)NC(=O)[C@H](C)NC(=O)[C@H](CC(C)C)NC(=O)[C@H](CC(N)=O)NC(=O)[C@H](CC(=O)O)NC(=O)[C@H](CC(C)C)NC(=O)[C@@H](NC(=O)[C@@H](NC(=O)[C@H](CC(N)=O)NC(=O)[C@H](CCSC)NC(=O)[C@H](CCC(=O)O)NC(=O)[C@H](CC(=O)O)NC(=O)[C@H](CO)NC(=O)[C@H](Cc1ccccc1)NC(=O)[C@H](CO)NC(=O)CNC(=O)[C@H](CC(=O)O)NC(=O)CNC(=O)[C@@H](N)Cc1c[nH]cn1)[C@@H](C)O)[C@@H](C)CC)C(=O)N[C@@H](CC(N)=O)C(=O)N[C@@H](Cc1c[nH]c2ccccc12)C(=O)N[C@@H](CC(C)C)C(=O)N[C@H](C(=O)N[C@@H](CCC(N)=O)C(=O)N[C@H](C(=O)N[C@@H](CCCCN)C(=O)N[C@H](C(=O)N[C@H](C(=O)N[C@@H](CC(=O)O)C(=O)O)[C@@H](C)O)[C@@H](C)CC)[C@@H](C)O)[C@@H](C)CC [SEQ ID NO: 3, GLP-2(A2G), reference compound]
- increase in mucosal wet weight (CD1 mice; 2.5 mg/kg (13.3 nmole), p<0.0001): statistically significant increase
- SEC-SLS elution / association state of peptides [1]: overlapping dimer and monomer peaks
- Helix [2]: 20.7%
- Random coil [2]: 37.1%
- upper gastrointestinal transit (normal mice [3]; listed as A2G-GLP-2): acceleration of upper gastrointestinal transit
- upper gastrointestinal transit (normal mice [3]; listed as A2G-GLP-2 peptide): significant acceleration of intestinal transit

Molecule: SEQ ID NO: 5: A2G GLP-2 mimetibody, IgG4 Hg-CH2-CH3 with S228P and P234A/L235A
- increase in mucosal wet weight vs control mimetibody (CD1 mice; 0.8 mg/kg (0.26 nmole), p<0.0001): statistically significant
- increase in mucosal wet weight vs control mimetibody (CD1 mice; 8 mg/kg (2.6 nmole), p<0.0004): statistically significant
- mucosal wet weight (mucosal scrapings) (CD1 mice; female CD1 mice, daily s.c. for 10 days, dose response): dose dependant increase; also recorded: dose-dependent increase
- effective in vivo dose lower than A2G GLP-2 peptide (CD1 mice; on a molar basis): 50 fold
- calculated half-life ([4]; CD1 mice, 3 mg/kg intravenously or subcutaneously, TRF active mimetibody): 26.5 h
- half-life higher than that of the GLP-2 peptide ([4]; mimetibody in mice vs GLP-2 peptide in humans): more than 200 fold
- mucosal weight difference to control mimetibody (mice [5]; 4 mg/kg every day or every other day, 11 days): more pronounced
- mucosal weight compared to control mimetibody (mice [5]; 4 mg/kg once per week, 11 days): significantly increased mucosal weight
- duodenum and jejunum section wet weight over control mimetibody (mice [5]; 4 mg/kg, all regimens except the single dose): significant increase in weight
- upper gastrointestinal transit (normal mice [6]; listed as A2G GLP-2 mimetibody): significant acceleration of intestinal transit
- upper gastrointestinal transit (normal mice [6]; listed as GLP-2 mimetibody): acceleration of upper gastrointestinal transit
- Geometric Center (GC) (normal mice [6]; single injection 4 days before, scale of 1 to 15, normal mice GC=6): 7.5
- SEC-SLS association state of mimetibodies [7]: dimer

B1: SEQ ID NO: 80: human A2G-GLP2 peptide in murine IgG2a scaffold (protein)
chain: HGDGSFSDEMNTILDNLAARDFINWLIQTKITDGSGGGSGTTVTVSAEPRGPTIKPCPPCKCPAPNAAGGPSVFIFPPKIKDVLMISLSPIVTCVVVDVSEDDPDVQISWFVNNVEVHTAQTQTHREDYNSTLRVVSALPIQHQDWMSGKEFKCKVNNKDLPAPIERTISKPKGSVRAPQVYVLPPPEEEMTKKQVTLTCMVTDFMPEDIYVEWTNNGKTELNYKNTEPVLDSDGSYFMYSKLRVEKKNWVERNSYSCSVVHEGLHNHHTTKSFSRTPGK
modifications: Human A2G-GLP2 peptide in murine IgG2a scaffold
- gastrointestinal transit after abdominal surgery (CD-1 mice; listed as murine A2G GLP-2 mimetibody): significant attenuation of the delay in gastrointestinal transit
- gastrointestinal transit after abdominal surgery (CD-1 mice; listed as murine A2G-GLP-2 mimetibody): significant improvement in transit
- number of MPO-positive leukocytes infiltrating small intestinal muscle layer (mice [8]): significantly reduced the number of infiltrating cells
